Biological target: T1, Human 5-lipoxygenase (Homo sapiens, UniProt P09917)
T1 construct: purchased Cayman 60402; host or cells: insect cells
T1 sequence (P09917 1-674): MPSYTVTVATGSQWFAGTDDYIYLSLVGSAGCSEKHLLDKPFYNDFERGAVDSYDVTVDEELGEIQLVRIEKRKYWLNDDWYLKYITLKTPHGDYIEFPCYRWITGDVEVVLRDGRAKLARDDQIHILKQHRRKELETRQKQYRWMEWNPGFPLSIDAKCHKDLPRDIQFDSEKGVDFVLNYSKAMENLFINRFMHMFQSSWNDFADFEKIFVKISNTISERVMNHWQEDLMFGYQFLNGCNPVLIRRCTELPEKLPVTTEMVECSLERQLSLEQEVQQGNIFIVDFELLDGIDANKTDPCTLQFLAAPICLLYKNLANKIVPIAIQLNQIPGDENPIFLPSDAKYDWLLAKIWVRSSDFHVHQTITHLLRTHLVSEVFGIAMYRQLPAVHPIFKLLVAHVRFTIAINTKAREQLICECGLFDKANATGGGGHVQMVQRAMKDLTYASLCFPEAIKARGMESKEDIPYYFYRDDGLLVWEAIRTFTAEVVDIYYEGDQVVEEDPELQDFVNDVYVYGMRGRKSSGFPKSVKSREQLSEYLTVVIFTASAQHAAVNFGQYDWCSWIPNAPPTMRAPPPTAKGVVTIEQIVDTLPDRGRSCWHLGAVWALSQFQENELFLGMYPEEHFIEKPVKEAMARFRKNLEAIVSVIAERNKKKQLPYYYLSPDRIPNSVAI
Assay: Activity of compounds against 5-LO enzyme (LTB4 measurement and/or fluorescence method)
Type: biochemical
Details: 5-LO, single concentration of 10 uM in duplicate
Description: The activity of compounds against 5-LO were determined by measuring LTB4 (leukotriene B4) levels and/or by a fluorescence method. Both approaches are outlined in more detail below;
Human 5-lipoxygenase (Cayman, Cat#60402) produced in insect cells was pre-incubated with compound for 15 min at RT in incubation buffer (50 mM Tris-Cl, pH 7.4, 2 mM CaCl2, 0.1 mM ATP, 1% DMSO). The enzymatic reaction was started by adding arachidonic acid to a final concentration of 3 uM. After 5 min of incubation at 37° C., the reaction was stopped by heatinactivation at 80° C. for 5 min. LTB4 levels were quantified by using LTB4 EIA kit (Cayman, Cat#520111) as instructed and/or LTB4 levelswere measured with LC/MS/MS using Quattro Premier™ XE tandem quadrupole mass spectrometer equipped with Acquity UPLC system (Waters, Milford, Mass.). The method was slightly modified as reported previously (Zweifel et al., 2008, Willey et al., 2008, Chappell et al, 2011). Briefly, chromatographic separation was carried out with Acquity UPLC BEH Shield RP18 Column (2.1 mm×50 mm, 1.7 μm particle size, Waters, Milford, Mass.). Sample injection volume was 10 μl, the column temperature was 35° C., the mobile phase A consisted of water with 0.1% formic acid and the mobile phase B consisted of acetonitrile with 0.1% formic acid. Flow rate was 0.4 mL/min and the gradient condition was as follows.
Relative quantification of LTB4 and LTB4-d4 (Internal Standard) was done using multi reaction monitoring (MRM) of the transitions of m/z 335→195 for LTB4, 339→197 for LTB4-d4 in electrospray ionization (ESI) negative mode. Desolvation temperature was 400° C., source temperature was 130° C. Capillary voltage, cone voltage, and collision voltage were 3.5 kV, 30V, and 20 eV, respectively. Nitrogen was used for desolvation (750 L/h) and cone (50 L/h) gas. Argon was used for collision gas (0.22 ml/min). The dwell time was 10 ms.
Besides the two methods quantifying LTB4 level, a fluorescence assay measuring 5-HpETE was introduced for high-throughput screening in a 384 well microplate format (Pufahl et al., 2007). For nonspecific ester cleavage of the acetate groups in H2DCFDA, the insect cell lysate expressing human 5-LO (Cayman Cat#60402) was incubated with H2DCFDA (50 mM Tris-Cl, pH 7.5, 2 mM CaCl2, 20 uM H2DCFDA, 500 mU 5-LO per reaction) for 5 minutes. Compound and enzyme mixture were pre-incubated for 5 minutes, and the enzymatic reaction was initiated by addition of ATP and arachidonic acid to a final concentration of 100 uM and 3 uM, respectively. After 5 minutes of incubation, the fluorescence was measured using Spectramax M5 (Molecular Device, Ex/Em=485 nm/530 nm). All steps were carried out at room temperature.
A total of 378 compounds were initially tested at a single concentration of 10 uM in duplicate with the results summarized in Table 1. From these 378 compounds, 53 compounds plus an additional 25 were selected for confirmation of activity by 6 or 11 point dose response in duplicate with the corresponding IC50 values outlined in Table 2.

inhibition at 10 µM [%] | SMILES
< 40 | Cc1nc2ccccn2c1C(=O)NCCOCc1ccccc1 [compound 29, N-(2-(Benzyloxy)ethyl)-2-methylimidazo[1,2-a]pyridine-3-carboxamide]
< 40 | Cc1nc2ccccn2c1NC(=O)Cc1ccccc1 [compound 41, N-(2-Methylimidazo[1,2-a]pyridin-3-yl)-2-phenylacetamide]
> 69 | CCc1nc2cc(Cl)ccn2c1CNc1ccc(N2CCC(c3ccc(OC(F)(F)F)cc3)CC2)cc1 [compound 376, N-((7-chloro-2-ethylimidazo[1,2-a]pyridin-3-yl)methyl)-4-(4-(4-(trifluoromethoxy)phenyl)piperidin-1-yl)aniline]
< 40 | CCc1nc2ccc(Cl)cn2c1CNCCc1cccnc1 [compound 343, N-((6-chloro-2-ethylimidazo[1,2-a]pyridin-3-yl)methyl)-2-(pyridin-3-yl)ethanamine]
40 to 69 | CCc1nc2cc(Cl)ccn2c1C(=O)NCc1ccc2ccccc2c1 [compound 90, 7-Chloro-2-ethyl-N-(naphthalen-2-ylmethyl)imidazo[1,2-a]pyridine-3-carboxamide]
40 to 69 | CCc1nc2cc(Cl)ccn2c1C(=O)NCc1ccc(-c2ccc(OC)cn2)cc1 [compound 119, 7-Chloro-2-ethyl-N-(4-(5-methoxypyridin-2-yl)benzyl)imidazo[1,2-a]pyridine-3-carboxamide]
< 40 | Cc1nc2ccccn2c1C(=O)NCCc1ccccc1 [compound 12, 2-Methyl-N-phenethylimidazo[1,2-a]pyridine-3-carboxamide]
40 to 69 | CCc1nc2ccc(C)cn2c1C(=O)NCc1ccc(-c2ccccc2)cc1 [compound 57, N-(Biphenyl-4-ylmethyl)-2-ethyl-6-methylimidazo[1,2-a]pyridine-3-carboxamide]
< 40 | Cc1nc2ccccn2c1C(=O)NCc1ccc(F)cc1 [compound 4, N-(4-Fluorobenzyl)-2-methylimidazo[1,2-a]pyridine-3-carboxamide]
> 69 | CCc1nc2ccc(Cl)cn2c1C(=O)N(C)Cc1ccc(Oc2ccc(F)cc2)cc1 [compound 164, 6-Chloro-2-ethyl-N-(4-(4-fluorophenoxy)benzyl)-N-methylimidazo[1,2-a]pyridine-3-carboxamide]
< 40 | CCc1nc2ccc(Cl)cn2c1C(=O)NCc1ccn(-c2ccc(C(F)(F)F)cc2)n1 [compound 151, 6-Chloro-2-ethyl-N-((1-(4-(trifluoromethyl)phenyl)-1H-pyrazol-3-yl)methyl)imidazo[1,2-a]pyridine-3-carboxamide]
40 to 69 | CCc1nc2cc(Cl)ccn2c1C(=O)NCc1ccc(OC(F)(F)F)cc1 [compound 107, 7-Chloro-2-ethyl-N-(4-(trifluoromethoxy)benzyl)imidazo[1,2-a]pyridine-3-carboxamide]
40 to 69 | CCc1nc2ccc(Cl)cn2c1C(=O)NCc1ccn(-c2ccc(OC(F)(F)F)cc2)n1 [compound 132, 6-Chloro-2-ethyl-N-((1-(4-(trifluoromethoxy)phenyl)-1H-pyrazol-3-yl)methyl)imidazo[1,2-a]pyridine-3-carboxamide]
< 40 | Cc1nc2ccccn2c1C(=O)Nc1ccc(OCc2ccccc2)cc1 [compound 14, N-(4-(Benzyloxy)phenyl)-2-methylimidazo[1,2-a]pyridine-3-carboxamide]
< 40 | CCc1nc2ccc(Cl)cn2c1C(=O)NCc1ccc(N2CCC(C(=O)O)CC2)cc1 [compound 307, 1-(4-((6-Chloro-2-ethylimidazo[1,2-a]pyridine-3-carboxamido)methyl)phenyl)piperidine-4-carboxylic acid]

Same assay, conditions: 6 or 11 point dose response in duplicate

IC50 [µM] | SMILES
> 20 | CCc1nc2cccnn2c1C(=O)N1CCC(OCc2ccc(OC(F)(F)F)cc2)CC1 [compound 387, (2-Ethylimidazo[1,2-b]pyridazin-3-yl)(4-((4-(trifluoromethoxy)benzyl)oxy)piperidin-1-yl)methanone]
1 to 20 | CCc1nc2ccc(Cl)cn2c1C(=O)N(C)Cc1ccc(Oc2ccc(F)cc2)cc1 [compound 164, 6-Chloro-2-ethyl-N-(4-(4-fluorophenoxy)benzyl)-N-methylimidazo[1,2-a]pyridine-3-carboxamide]
